“Also recorded” adds a separate entry of the source.
Tests used:
type I collagen films = target: T1, type I collagen films (Rattus norvegicus, UniProt P02454+P02466); test: Quantification of CF(GPO)9 bound on type I collagen films; format: binding; conditions: UV+, collagenase digestion, standard curve
T1 construct: Collagen solution (200 μL, 3.71 mg/mL, type I rat tail, BD Science); purchased BD Science; host or cells: rat tail
Procedure: Quantification of CF(GPO)9 (SEQ ID NO: 10) bound on type I collagen films. Following photo-induced binding, CMP-bound collagen films (e.g. the UV+ group of FIG. 10A) were digested with 200 μL of collagenase (Sigma, C0130) solutions (1 mg/mL) in TESCA buffer (50 mM TES buffer with 1.36 mM CaCl2, pH 7.4) for 1 hr at 37° C. The digested solutions were directly used for fluorescence measurement (ex: 489 nm, em: 533 nm). For the standard curve, a series of solutions containing known amounts of CF^NB(GPO)9 (SEQ ID NO: 4) (0 to 0.35 nmol) were applied to blank collagen films and air-dried, followed by collagenase digestion and fluorescence measurement as described above. The amount of bound CF(GPO)9 (SEQ ID NO: 10) was determined by comparing the fluorescence intensity of the digested collagen/CMP solutions with the standard curve, and the binding density was determined by dividing the amount bound by the area of the well. The experiment was performed in triplicate.

[1] = test system: type I and type II gelatin; test: CMP binding assay on thermally-denatured type I and II collagens (coatings); parameters: species or system rat (type I), bovine (type II); conditions: UV-exposed, 20 μM, room temperature
Procedure: CMP binding assay on thermally-denatured type I and II collagens. A solid-state protein coating instead of a reconstituted gelatin film (as described above) was chosen as the binding substrate to avoid the collagen type dependent film instability. Wells of nunc black 96-well maxisorp plate (Thermo Scientific) were charged with 50 μL of 1×PBS buffer containing 100 μg/mL type I or type II (bovine, BD Science) collagen which was denatured by 10 minutes of incubation at 75° C. After 1 hour, the coating solutions were removed and wells were washed with 1×PBS buffer containing 1 mg/mL BSA (PBSB), and blocked with 50 mg/mL BSA in PBS for 1 hour, followed by additional wash with PBSB. CF^NB(GPO)9 (SEQ ID NO: 4) or CF^SG9P9O9 (SEQ ID NO: 5) solution (20 μM, 50 μL in PBS) was added to each well, exposed to UV light for 10 min, and incubated at room temperature for 2.5 hours. Wells were washed three times with 100 μL of PBSB followed by fluorescence (ex: 489 nm, em: 533 nm) reading with a SpectraMax M-2 microplate reader (Molecular Devices). Each binding experiment was done in triplicate. The background fluorescence of empty wells was subtracted from the raw fluorescence data.

[2] = test system: streptococcal collagen-like protein Scl2.28CL; test: SDS-PAGE staining of collagen-like protein Scl2.28CL; format: binding, Streptococcus pyogenes; conditions: 6 μM, heat activated, 2.5 μg, gel fixed with glutaraldehyde
Procedure: To prepare MMP-1 cleaved collagen chain fragments, proMMP-1 (1 μg) was activated by p-aminophenylmercuric acetate (1.1 mM) in 132.5 μL of TNC buffer (50 mM Tris-HCl, 0.15 M NaCl, 5 mM CaCl2, 0.02% NaN3, pH 7.5) at 37° C. for 3 hr, after which type I collagen (62.6 μg) was added to the activated MMP-1 solution and incubated at room temperature for at least 3 days. To obtain the cell lysate, confluent HUVECs cultured in EGM-2 media at 37° C. were lysed with lysis buffer (25 mM Tris-HCl, 0.5% Triton X-100, 200 mM NaCl, 2 mM EDTA, phosphatase and protease inhibitors; Roche Applied Science). The lysate solution was spun at 15,000 g for 15 min and the supernatant was collected. The recombinant streptococcal collagen-like protein Scl2.28CL was expressed and characterized following the methods introduced by Mohs et al. (J. Biol. Chem. 282, 29757-29765 (2007)).
SDS-PAGE staining and imaging. Proteins were resolved on NuPAGE® Novex 4-12% bis-tris gels under denaturating conditions using an XCell SureLock™ Mini-Cell electrophoresis system (Life Technologies). […] The fluorescence intensities of the protein bands were quantified using GE ImageQuant™ TL software. After fluorescence imaging, all gels were further stained with coomassie brilliant blue (CB) G-250 (Bio-Rad) for 2-3 hr followed by washing, and imaging under white light illumination using a Gel Doc EQ system (BioRad).

T1 sequence (P02454 152-1207 limits assumed): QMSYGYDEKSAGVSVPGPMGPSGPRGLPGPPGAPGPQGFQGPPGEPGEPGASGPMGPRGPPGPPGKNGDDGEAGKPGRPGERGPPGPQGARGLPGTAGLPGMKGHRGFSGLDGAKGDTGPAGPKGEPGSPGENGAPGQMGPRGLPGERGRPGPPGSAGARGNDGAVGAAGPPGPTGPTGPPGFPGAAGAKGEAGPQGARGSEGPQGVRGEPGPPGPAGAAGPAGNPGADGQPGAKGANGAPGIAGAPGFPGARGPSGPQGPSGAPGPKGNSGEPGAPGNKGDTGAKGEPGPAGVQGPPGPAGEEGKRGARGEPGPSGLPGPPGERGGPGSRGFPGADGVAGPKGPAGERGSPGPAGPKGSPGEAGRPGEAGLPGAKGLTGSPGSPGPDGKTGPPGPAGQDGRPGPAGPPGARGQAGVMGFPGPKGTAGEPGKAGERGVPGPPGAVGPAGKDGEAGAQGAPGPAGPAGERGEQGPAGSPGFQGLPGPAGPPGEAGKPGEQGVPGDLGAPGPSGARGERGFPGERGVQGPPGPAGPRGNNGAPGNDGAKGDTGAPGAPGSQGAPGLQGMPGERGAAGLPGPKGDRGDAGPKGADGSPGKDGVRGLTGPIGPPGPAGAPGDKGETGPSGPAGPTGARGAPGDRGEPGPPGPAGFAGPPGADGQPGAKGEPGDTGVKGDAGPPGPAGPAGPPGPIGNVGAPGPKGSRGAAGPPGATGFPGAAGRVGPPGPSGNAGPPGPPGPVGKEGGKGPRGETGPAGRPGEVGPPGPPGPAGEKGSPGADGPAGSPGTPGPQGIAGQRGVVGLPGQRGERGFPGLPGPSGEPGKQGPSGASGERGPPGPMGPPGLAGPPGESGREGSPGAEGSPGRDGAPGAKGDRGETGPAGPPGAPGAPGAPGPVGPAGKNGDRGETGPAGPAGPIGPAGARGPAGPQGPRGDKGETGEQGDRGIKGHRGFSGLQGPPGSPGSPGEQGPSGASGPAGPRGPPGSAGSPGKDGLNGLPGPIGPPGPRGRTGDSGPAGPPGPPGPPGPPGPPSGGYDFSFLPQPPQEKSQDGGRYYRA
T1 sequence (P02466 86-1125 limits assumed): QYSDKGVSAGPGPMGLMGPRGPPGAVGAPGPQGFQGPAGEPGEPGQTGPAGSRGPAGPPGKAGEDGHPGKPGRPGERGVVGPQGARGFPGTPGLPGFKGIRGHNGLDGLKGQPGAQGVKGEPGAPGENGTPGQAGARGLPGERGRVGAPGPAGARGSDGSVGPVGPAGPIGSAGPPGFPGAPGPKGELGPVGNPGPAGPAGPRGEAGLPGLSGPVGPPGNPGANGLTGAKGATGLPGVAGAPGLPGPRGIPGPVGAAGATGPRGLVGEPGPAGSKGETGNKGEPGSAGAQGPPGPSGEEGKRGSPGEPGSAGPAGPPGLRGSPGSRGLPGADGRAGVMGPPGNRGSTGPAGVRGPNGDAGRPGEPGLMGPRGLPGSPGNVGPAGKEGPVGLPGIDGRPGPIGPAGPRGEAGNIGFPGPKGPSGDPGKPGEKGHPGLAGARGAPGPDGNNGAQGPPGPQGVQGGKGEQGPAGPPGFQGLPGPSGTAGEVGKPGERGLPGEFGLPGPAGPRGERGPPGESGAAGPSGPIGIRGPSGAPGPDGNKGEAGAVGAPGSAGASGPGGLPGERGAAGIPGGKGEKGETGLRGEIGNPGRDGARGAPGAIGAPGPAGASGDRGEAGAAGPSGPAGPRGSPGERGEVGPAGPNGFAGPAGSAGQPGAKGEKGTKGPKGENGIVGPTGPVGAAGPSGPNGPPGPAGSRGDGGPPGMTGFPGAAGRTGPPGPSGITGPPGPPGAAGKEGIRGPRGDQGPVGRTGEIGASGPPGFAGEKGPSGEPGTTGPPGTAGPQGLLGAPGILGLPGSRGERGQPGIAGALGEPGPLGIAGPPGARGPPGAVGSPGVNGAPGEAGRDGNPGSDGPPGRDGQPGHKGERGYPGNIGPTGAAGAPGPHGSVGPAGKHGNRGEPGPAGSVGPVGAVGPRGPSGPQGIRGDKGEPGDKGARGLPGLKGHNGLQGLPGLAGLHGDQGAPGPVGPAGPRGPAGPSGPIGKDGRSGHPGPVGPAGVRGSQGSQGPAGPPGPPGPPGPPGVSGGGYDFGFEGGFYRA

density of photo-induced CMP binding to intact collagen (type I collagen films) | Substance | binding affinity to gelatin (fluorescence level) [1] | staining of Scl2.28CL bands [2]
0.56±0.03 nmol/cm^2 | CF-GGG-(GPO)4^NBGPO(GPO)4 [CF^NB(GPO)9] | confirmed for both type I and type II gelatin | –
– | CF-GGG-(GPO)9 [CF(GPO)9] | – | failed to stain; also recorded: almost no staining of the Scl2.28CL band
– | CF-GGG-PGOGPGPOPOGOGOPPGOOPGGOOPPG [CF^SG9P9O9, reference compound] | negligible affinity to gelatin | –
